This is an account of results in patent publication US8927565B2, “Compositions for veterinary and medical applications” (priority 2003, dated 2015).

Series [1] relates to piglets. The series is described as follows: GILAX as feed additive for pig health after weaning. In kind it is in vivo. The following applies: in-feed amoxicillin at 50 mg/kg/day for 21 days (positive control).
In series [2] the test system is Staph. Aureus ATCC 29213. The series is described as follows: Antimicrobial activity, Minimum Inhibitory Concentration. The format is cell-based, Staphylococcus aureus.
The test system of series [3] is C. albicans ATCC 14053. The description is as above. The format is cell-based, Candida albicans. The following applies: for Minimum Inhibitory Concentration: C. albicans ATCC 14053.
Series [4] relates to L. plantarum. Described as above. In kind it is cell-based, Lactobacillus plantarum. The following applies: for Minimum Inhibitory Concentration: L. plantarum.
Series [5] concerns Strep. Group B MCR1 27. The series is described as above. In kind it is cell-based, Streptococcus Group B. The following applies: for Minimum Inhibitory Concentration: Strep. Group B MCR1 27.
Series [6] relates to E. coli HS. Described as above. In kind it is cell-based, Escherichia Coli.
Series [7] concerns V. cholerae 6239. Described as above. The format is cell-based, Vibrio cholerae. Particulars: for Minimum Inhibitory Concentration: V. cholerae 6239.
In series [8] the test system is Lactobacilli. The series is described as follows: Effect on probiotic bacteria below the MIC. In kind it is cell-based. Particulars: berberine at 5 µg/ml. An excerpt: (§1) This specific property of berberine offers an important aspect as a GI tract cleanser, since it can selectively remove pathogenic bacteria from the gut without affecting the inhabitations of the probiotic bacteria in GI tract, and without exerting excessive drug pressure on the bacteria, which may lead to drug resistance.

For series [9], the system named is chickens. The series can be described thus: Pilot chicken experiment (feed additives, growth and red combs).
In series [10] the test system is hFUT1 mouse model of colitis. The series can be described thus: Treatment of IBD on mouse model. Particulars: Group 2: berberine chloride 13.5 mg/kg/day (o.s.). The format is in vivo. An excerpt:
hFUT1 mouse model of colitis was used. It provides insights into the pathogenesis of Inflammatory Bowel Disease (IBD). […] Immune dysfunction contributing to IBD in humans includes abnormal T cell reactivity and a loss of tolerance to gut bacteria. The compositions of Formula (1) and Formula (2) were given orally to mice to see the effectiveness on the altering the gut flora and lessening the severity of the colitis. The positive results indicated the compositions of Formula and Formula (2) may have a therapeutic role in human IBD.
A total five groups with ten mice per group were used as follows. • 1) Control (without treatment). • 2) Treated with compound of the Formula (1) (berberine chloride), 13.5 mg/kg/day (o.s.). • 3) Treated with compound of the Formula (2) (40% oxidized cellulose), 114 mg/kg/day (o.s.). • 4) Treated with composition of the Formula (1) (berberine chloride) (6.7 mg/kg/day) and the Formula (2) (40% oxidized cellulose) (57 mg/kg/day) (o.s.). • 5) Treated with composition of the Formula (1) (berberine chloride) (13.5 mg/kg/day) and the Formula (2) (114 mg/kg/day) (o.s.).

Series [11] relates to Escherichia Coli. The series can be described thus: Loss of filaments and of attachment to intestinal wall below the MIC. The format is cell-based. The following applies: berberine at 5 µg/ml, much lower than MIC.
Source text: as §1

Series [12] deals with interleukine-12 (IL-12). The series can be described thus: Induction of interleukine-12.
The subject of series [13] is IL-8. The series can be described thus: Inhibition of IL-8 production.
Series [14] relates to Cl. perfringens ATCC 1124. In kind it is cell-based. The following applies: Clostridium perfringens.
The conditions of series [15]: across the intestinal tissue; reference [13]; cited from earlier work.

Each structure is given as a SMILES string.

Take `CC1(C)S[C@@H]2[C@H](NC(=O)[C@H](N)c3ccc(O)cc3)C(=O)N2[C@H]1C(=O)O` [Amoxicillin, amoxicillin]: in series [1], the “health of piglets after weaning” value was “all healthy” and the “need of injectable amoxicillin for sick piglets” value was “no injectable amoxicillin was needed”.
Turning to `CC[C@H]1OC(=O)[C@H](C)[C@@H](O[C@H]2C[C@@](C)(OC)[C@@H](O)[C@H](C)O2)[C@H](C)[C@@H](O[C@@H]2O[C@H](C)C[C@H](N(C)C)[C@H]2O)[C@](C)(O)C[C@@H](C)C(=O)[C@H](C)[C@@H](O)[C@]1(C)O` [Erythromycin, reference compound], the “Minimum Inhibitory Concentration” value in series [2] (Staph. Aureus ATCC 29213) is <0.625 µg/mL; in series [3], >10 µg/mL; in series [4] it was <0.625 µg/mL; in [5] it was <0.625 µg/mL; in [6] it was >10 µg/mL; in series [7], >10 µg/mL.
Turning to `COc1ccc2cc3[n+](cc2c1OC)CCc1cc2c(cc1-3)OCO2.[Cl-]` [berberine chloride], the “inhibition of pathogenic bacteria (in words)” value in series [2] (Staphylococcus aureus), in series [3] (Candida albicans), in series [5] (Streptococcus Group B), in series [14] and in [7] (Vibrio cholerae) was “selectively inhibits” each time. The “Minimum Inhibitory Concentration” value in series [3] is 62.5 µg/mL; in series [4], 500 µg/mL; in series [5], 62.5 µg/mL; in [6], >500 µg/mL; in [7] it was 125 µg/mL. Further, the “inhibition of beneficial bacteria (probiotics) (in words)” value in series [4] (Lactobacillus plantarum, at <500 µg/ml) was “does not inhibit”. The “effect on probiotic bacteria” value in series [8] is given as “did not affect”. Also, the “Growth rate compared to that of the control on day 36” value is given as 106.36% (p = 0.05) in [9] (Group A: 50 ppm berberine chloride in feed) and 101.79% in series [9] (Group B: 10 ppm berberine chloride in feed). The “Red Combs (Number of red comb/total number of chickens)” value in [9] (Group A: 50 ppm berberine chloride in feed, Day 14 (start of additive)) is 0/5; in series [9] (Group A: 50 ppm berberine chloride in feed, Day 17), 1/5; in series [9] (Group A: 50 ppm berberine chloride in feed, Day 21), 1/5; in [9] (Group A: 50 ppm berberine chloride in feed, Day 24) it was 3/5; in series [9] (Group A: 50 ppm berberine chloride in feed, Day 26), 3/5; in series [9] (Group A: 50 ppm berberine chloride in feed, Day 32), 4/5. Besides, the “Red Combs (Number of red comb/total number of chickens)” value is recorded as 4/5 in series [9] (Group A: 50 ppm berberine chloride in feed, Day 36); 0/5 in [9] (Group B: 10 ppm berberine chloride in feed, Day 14 (start of additive)); 0/5 in [9] (Group B: 10 ppm berberine chloride in feed, Day 17); 2/5 in series [9] (Group B: 10 ppm berberine chloride in feed, Day 21); 2/5 in [9] (Group B: 10 ppm berberine chloride in feed, Day 24); 3/5 in [9] (Group B: 10 ppm berberine chloride in feed, Day 26). Moreover, the “Red Combs (Number of red comb/total number of chickens)” value in series [9] (Group B: 10 ppm berberine chloride in feed, Day 32) is given as 4/5; in series [9] (Group B: 10 ppm berberine chloride in feed, Day 36), 5/5. Moreover, the “residue found in the meat of chickens” value in [9] (after feeding as feed additive) is listed as “no residue”. The “Survival rate after 56 days treatment” value in series [10] was 5/10. Moreover, the “effect on filaments and attachment on the wall of intestine” value in [11] is “lost their filaments and were unable to attach on the wall of intestine”. Further, in series [12], the “induction of interleukine-12 (IL-12)” value is on record as “could induce”. The “inhibition of the production of IL-8” value in [13] is “inhibit the production of IL-8”. The “apparent permeability coefficient (Papp)” value in series [15] is ~10^−7 cm/s.
